Experimental data published in patent US6656459B2, “Compositions of non-ionic block copolymers to treat autoimmune and inflammatory diseases, and to reduce graft/implantation, and methods of use thereof” (priority 2000, dated 2003).

System: Collagen-immunized DBA/I mice
Experiment: collagen-induced arthritis (CIA), frequency and severity of RA symptoms
Type: in vivo
Procedure: The anti-RA efficacy of SP1018R (200 μl of F127 and L61 in a ratio of 8:1 at a concentration of 2.25% ) was compared to that of MTX that was given at a human equivalent dose (0.1 mg/kg i.v.), both drugs were given on day 30 and day 37 after the first immunization with collagen. For induction of severe CIA, mice were primed with 500 μl pristane and immunized at day 14 and 21 by administration of 100 μg colagen type II in Freund's complete adjuvant. The control (placebo) and the treated animals were evaluated for RA severity. RA was graded semi-quantitatively on a scale of 0-4 for each paw: 0=no changes; 0.5=significant swelling and redness on one digit; 1=swelling and erythema of 2 digits; 2=mild swelling and erythema of the limb or swelling of more than 2 digits; 3=marked swelling and erythema of the limb; and 4=maximal swelling and redness of the limb and later, ankylosis. […] Rev. Immunol.
The data shown below represent the maximal frequency (%) of animals having developed symptoms of RA and the frequency of animals still having the symptoms of RA at the end of the study. All Pluronics used in all examples were purchased from BASF Co.
Frequency of RA development at various time points during the course of RA development

[1] = Study NG256, given twice (2X; day 30 and day 37)

SMILES: CN(Cc1cnc2nc(N)nc(N)c2n1)c1ccc(C(=O)N[C@@H](CCC(=O)O)C(=O)O)cc1 [MTX, methotrexate]
- RA severity, clinical disease symptoms (scale of 0-4 for each paw) (SP1018R 200 μl, MTX 0.1 mg/kg i.v., day 30 and day 37 after first immunization): slight therapeutic effect
- frequency of animals still having the symptoms of RA at the end of the study [1]: 100%
- maximal frequency (%) of animals having developed symptoms of RA [1]: MTX—100%
